Results from US9289471B2, “Product and process for liquefaction of mucus or sputum” (National Jewish Health, priority 2002, dated 2016).

Test: Compaction assay: percent liquid fraction of CF sputum
Parameters: species or system human
Details: for 3 day range of percent of sputum in the liquid state: donor B; for range of percent liquid values: donor C; for percent liquid fraction: 20 min (FIG. 3A); for liquefying sputum: concentrations below 1 mM
Description: CF sputum stored at −80° C. was thawed at room temperature and aliquoted into 1.5 ml Eppendorf centrifuge tubes at volumes of 275 μl using a positive displacement pipette (Rainin, Emeryville, Calif.). Sputum samples were subjected to either diluent (H2O), Trx+TR+NADPH, GSH+glutathione reductase+NADPH, dithiothreitol (DTT) or N-acetylcysteine treatment by the addition of 25 μl of H2O containing the appropriate molar concentration of each agent. After brief vortexing (˜1 second), sample tubes were loaded onto a microtube rotisserie (Barnstead, Dubuque, Iowa) and incubated at 37° C. for 20 minutes. Samples were then processed for compaction assay according to methodology originated by Daugherty et al. (Daugherty et al., Biomaterials 16:553-558, 1995). To perform the assay, the contents of each sample were loaded into 100 μl glass micro-capillary tubes (Fisher Scientific) that had been previously welded to 200 μl pipette tips in order to achieve a tight fit. Three modified capillary tubes were used to draw up >90% of each sputum sample. Capillary tubes were then removed from their pipette tip, sealed with clay, and centrifuged for 10 minutes in a hematocrit centrifuge (IEC, Needham Heights, Mass.), followed by measurement of the length in millimeters of the gel (solid) and aqueous (liquid) phases in each tube. The percent liquid fraction of each capillary tube was calculated by dividing aqueous phase length by total length (gel+aqueous)×100. The three measurements of the liquid fraction (%) derived from each sample were then averaged to generate a single value for each treatment condition.
Due to abnormal ion transport caused by defects in the CFTR gene, airway secretions in CF patients are often desiccated. As a consequence, purulent CF sputum is comprised largely of a rigid and nonflowing biopolymer matrix, often referred to as gel phase, and lesser amounts of soluble, liquid phase. To assess the effect of Trx on the ratios of these two phases in sputum, compaction assay measurements were performed. […] After 20 minute incubation, the liquid fraction of each sample was determined by compaction assay.
To examine the effect of NADPH, additional samples from different donors were treated with 30 μM Trx, 0.1 μM TR and either 0, 0.2, 0.6, 1.0 or 2 mM NADPH for 20 minutes.
To assess the reproducibility of compaction assay measurements, sputum samples from three different CF donors were separated into aliquots and frozen. Specifically, freshly isolated CF sputum from three different donors (A, B, C) was separated into 275 μl aliquots and frozen. […] Results obtained from three independent experiments performed on each donor sample were used to evaluate assay reproducibility. On three consecutive days, aliquots were thawed, and treated with water, Trx and its reducing system, dithiothreitol (DTT), or no treatment.
The effectiveness of Trx in liquefying sputum was compared with other monothiol and dithiol reducing agents. Sputum samples were aliquoted and treated with Trx or GSH for 20 minutes and percent liquid determined by compaction assay. Initial compaction assay experiments compared the potencies of the Trx and GSH reducing systems in liquefaction of sputum in the presence of equimolar concentrations of NADPH. […] The analysis of Trx and NAC efficacy also was determined after 20 minute incubation, but on a different set of sputum samples.

O[C@H](CS)[C@H](O)CS (racemic) [DTT, dithiothreitol]
3 day range of percent of sputum in the liquid state (1 mM DTT): 24-31%
3 day range of percent of sputum in the liquid state (5 mM DTT): 42-57%
range of percent liquid values (1 mM DTT): 57-61%
range of percent liquid values (5 mM DTT): 77-79%
sputum liquefying effectiveness compared with NAC (equimolar basis (FIGS. 2 and 3; data not shown)): more effective on an equimolar basis than NAC

N[C@@H](CCC(=O)N[C@@H](CS)C(=O)NCC(=O)O)C(=O)O [GSH, glutathione]
percent liquid fraction (30 μM GSH + 0.1 μM Gr + 2 mM NADPH): 7.8±5.7%
percent liquid fraction (100 μM GSH + 0.1 μM Gr + 2 mM NADPH): 15.9±9.3%
percent liquid fraction (1 mM GSH + 0.1 μM Gr + 2 mM NADPH): 27.6±3.9%
significance of increase in liquid fraction versus control (GSH at comparable or higher concentrations up to 1 mM): a significant increase in the liquid fraction of sputum was not observed
liquefying sputum: ineffective

CC(=O)N[C@@H](CS)C(=O)O [N-acetylcysteine]
liquefying sputum: ineffective
effectiveness in causing liquefaction of sputum compared with Trx (range of concentrations, 20 min, 4 experiments (FIG. 3B)): less effective than Trx

NC(=O)C1=CN([C@@H]2O[C@H](COP(=O)(O)OP(=O)(O)OC[C@H]3O[C@@H](n4cnc5c(N)ncnc54)[C@H](OP(=O)(O)O)[C@@H]3O)[C@@H](O)[C@H]2O)C=CC1 [NADPH, β-Nicotinamide adenine dinucleotide phosphate, reduced form]
increase in proportion of sputum present in the liquid fraction (NADPH in the absence of Trx (not shown)): did not cause any increase
